# Test system: SARS-CoV-2
# Test: Antiviral activity against SARS-CoV-2 nCoV-2019BetaCoV/Wuhan/WIV04/2019 infected in African green monkey Vero E6 cells assessed as reduction in viral yield preincubated with cells for 1 hrs followed by viral infection for 1 hrs with subsequent replacement of fresh media containing compound and measured 24 hrs post infection by qRT-PCR analysis
# Format: functional, organism-based
# Conditions: Severe acute respiratory syndrome coronavirus 2, nCoV-2019BetaCoV/Wuhan/WIV04/2019, Vero C1008
smiles,measurement,value
C=C1C(=O)O[C@@]23C1CC[C@@H](C)[C@@H]2CC[C@@]1(C)O[C@@H]31 (stereo partly specified),EC50,10.3 µM
